Among the data in ChEMBL document CHEMBL3272125, “Antiprotozoal thiazoles. 2. 2-(5-Nitro-2-furyl-, thiazolyl-, and 1-methylimidazolyl-)thiazoles” (J Med Chem, 1977) are MST and LD50 values, retold here.

Series [1] deals with Trypanosoma cruzi. Nature of the series: Antiprotozoal activity against Trypanosoma cruzi BH infected in CFW mouse assessed as increase in host mean survival time at 50 mg/kg, ip administered daily for 5 days starting 4 hrs post-parasite infection (reference value: 14 +/- 1 days). The class given is functional. The note with it: route intraperitoneal.
The test system of series [2] is Trypanosoma cruzi. Nature of the series: Antiprotozoal activity against Trypanosoma cruzi BH infected in CFW mouse assessed as increase in host mean survival time at 200 mg/kg, po administered daily for 5 days starting 4 hrs post-parasite infection (reference value: 14 +/- 1 days). The class given is functional.
In series [3] the test system is Trypanosoma cruzi. Nature of the series: Antiprotozoal activity against Trypanosoma cruzi BH infected in CFW mouse assessed as increase in host mean survival time at 50 mg/kg, po administered daily for 5 days starting 4 hrs post-parasite infection (reference value: 14 +/- 1 days). In kind it is functional.
Series [4] has as its system Trypanosoma cruzi. Nature of the series: Antiprotozoal activity against Trypanosoma cruzi BH infected in CFW mouse assessed as increase in host mean survival time at 5 mg/kg, ip administered daily for 5 days starting 4 hrs post-parasite infection (reference value: 14 +/- 1 days). In kind it is functional. The note with it: route intraperitoneal.
For series [5], the system named is Trypanosoma cruzi. Nature of the series: Antiprotozoal activity against Trypanosoma cruzi BH infected in CFW mouse assessed as increase in host mean survival time at 100 mg/kg, po administered daily for 5 days starting 4 hrs post-parasite infection (reference value: 14 +/- 1 days). The class given is functional.
Series [6] can be described thus: Acute toxicity in po dosed CFW mouse administered daily for 5 days. The note with it: in vivo. In kind it is organism-based.
The subject of series [7] is Trypanosoma cruzi. Nature of the series: Antiprotozoal activity against Trypanosoma cruzi BH infected in CFW mouse assessed as increase in host mean survival time at 100 mg/kg, ip administered daily for 5 days starting 4 hrs post-parasite infection (reference value: 14 +/- 1 days). The class given is functional. The settings on record: route intraperitoneal.
The nature of series [8]: Acute toxicity in ip dosed CFW mouse administered daily for 5 days. The settings on record: in vivo. In kind it is organism-based.
In series [9] the test system is Trypanosoma cruzi. Nature of the series: Antiprotozoal activity against Trypanosoma cruzi BH infected in CFW mouse assessed as increase in host mean survival time at 25 mg/kg, ip administered daily for 5 days starting 4 hrs post-parasite infection (reference value: 14 +/- 1 days). In kind it is functional. The settings on record: route intraperitoneal.
In series [10] the test system is Trypanosoma cruzi. Nature of the series: Antiprotozoal activity against Trypanosoma cruzi BH infected in CFW mouse assessed as increase in host mean survival time at 10 mg/kg, ip administered daily for 5 days starting 4 hrs post-parasite infection (reference value: 14 +/- 1 days). In kind it is functional. The settings on record: route intraperitoneal.
Series [11] relates to Trypanosoma cruzi. Nature of the series: Antiprotozoal activity against Trypanosoma cruzi BH infected in CFW mouse assessed as increase in host mean survival time at 25 mg/kg, po administered daily for 5 days starting 4 hrs post-parasite infection (reference value: 14 +/- 1 days). In kind it is functional.
In series [12] the test system is Trypanosoma cruzi. Nature of the series: Antiprotozoal activity against Trypanosoma cruzi BH infected in CFW mouse assessed as increase in host mean survival time at 5 mg/kg, po administered daily for 5 days starting 4 hrs post-parasite infection (reference value: 14 +/- 1 days). The class given is functional.
For series [13], the system named is Trypanosoma cruzi. Nature of the series: Antiprotozoal activity against Trypanosoma cruzi BH infected in CFW mouse assessed as increase in host mean survival time at 10 mg/kg, po administered daily for 5 days starting 4 hrs post-parasite infection (reference value: 14 +/- 1 days). In kind it is functional.
Series [14] relates to Trypanosoma cruzi. Nature of the series: Antiprotozoal activity against Trypanosoma cruzi Y infected in CFW mouse assessed as increase in host mean survival time at 5 mg/kg, po administered daily for 10 days starting 4 hrs post-parasite infection. In kind it is functional.
Series [15] concerns Trypanosoma cruzi. Nature of the series: Antiprotozoal activity against Trypanosoma cruzi Peru infected in CFW mouse assessed as increase in host mean survival time at 10 mg/kg, po administered daily for 10 days starting 4 hrs post-parasite infection. In kind it is functional.
The subject of series [16] is Trypanosoma cruzi. Nature of the series: Antiprotozoal activity against high myocardial tissue infiltration leishmanial form of Trypanosoma cruzi BHC/10 infected in CFW mouse assessed as increase in host mean survival time at 10 mg/kg, po administered daily for 10 days starting 4 hrs post-parasite infection. In kind it is functional.
The test system of series [17] is Trypanosoma cruzi. Nature of the series: Antiprotozoal activity against Trypanosoma cruzi Y infected in CFW mouse assessed as increase in host mean survival time at 10 mg/kg, po administered daily for 10 days starting 4 hrs post-parasite infection. In kind it is functional.
The subject of series [18] is Trypanosoma cruzi. Nature of the series: Antiprotozoal activity against Trypanosoma cruzi Y infected in CFW mouse assessed as increase in host mean survival time at 25 mg/kg, po administered daily for 10 days starting 4 hrs post-parasite infection. In kind it is functional.
In series [19] the test system is Trypanosoma cruzi. Nature of the series: Antiprotozoal activity against Trypanosoma cruzi Peru infected in CFW mouse assessed as increase in host mean survival time at 25 mg/kg, po administered daily for 10 days starting 4 hrs post-parasite infection. In kind it is functional.
Series [20] has as its system Trypanosoma cruzi. Nature of the series: Antiprotozoal activity against high myocardial tissue infiltration leishmanial form of Trypanosoma cruzi BHC/10 infected in CFW mouse assessed as increase in host mean survival time at 5 mg/kg, po administered daily for 10 days starting 4 hrs post-parasite infection. In kind it is functional.
The subject of series [21] is Trypanosoma cruzi. Nature of the series: Antiprotozoal activity against high myocardial tissue infiltration leishmanial form of Trypanosoma cruzi BHC/10 infected in CFW mouse assessed as increase in host mean survival time at 25 mg/kg, po administered daily for 10 days starting 4 hrs post-parasite infection. In kind it is functional.
Series [22] deals with Trypanosoma cruzi. Nature of the series: Antiprotozoal activity against Trypanosoma cruzi Peru infected in CFW mouse assessed as increase in host mean survival time at 5 mg/kg, po administered daily for 10 days starting 4 hrs post-parasite infection. The class given is functional.

Take `O=[N+]([O-])c1ccc(-c2nc(/C=N/N3CCSCC3)cs2)o1`: the MST in series [1] stood at 60 days; in series [2], 18 days; in series [3], 0 days; in [4] it was 0 days; in [5] it was 4 days; in series [7] it was 60 days. Moreover, the MST in series [9] was 18 days; in [10], 0 days. In addition, the LD50 (as a rule, the dose expected to kill half of the subjects tested) at 120 h is > 1600 mg/kg in [6] and > 800 mg/kg in [8].
As to `O=[N+]([O-])c1ccc(-c2nc(/C=N/N3CCCCCC3)cs2)o1`, the MST in [1] came to 7 days; in [2], 2 days; in [5] it was 0 days; in [7] it was 39 days; in series [9], 4 days. For the same compound, the LD50 at 120 h in series [6] was > 1600 mg/kg; in series [8], > 800 mg/kg.
Regarding `O=[N+]([O-])c1cnc(-c2nc(/C=N/N3CCCCC3)cs2)s1`, the MST in [2] and in [7] was 0 days in each case. The LD50 at 120 h in [6] is > 1600 mg/kg; in series [8], > 800 mg/kg.
On to `O=[N+]([O-])c1ccc(-c2nc(/C=N/N3CCOCC3)cs2)s1`, for which the MST worked out at 27 days in [1]; 60 days in [2]; 0 days in series [3]; 0 days in series [4]; 0 days in [11]; 0 days in series [5]. The MST in series [7] was 60 days; in series [9], 12 days; in series [12], 0 days; in [13], 0 days; in series [10] it was 0 days. The LD50 at 120 h in [6] was > 1600 mg/kg; in series [8], > 800 mg/kg.
Consider `O=[N+]([O-])c1cnc(-c2nc(/C=N/N3CCSCC3)cs2)s1`, for which the MST turned out to be 3 days in series [1]; 1 days in series [2]; 0 days in [5]; 4 days in series [7]; 0 days in series [9]. Also, the LD50 at 120 h in series [6] is > 1600 mg/kg; in [8], > 800 mg/kg.
As to `O=[N+]([O-])c1cnc(-c2nc(/C=N/N3CCOCC3)cs2)s1`, the MST in series [2] is 0 days; in [7], 4 days. The LD50 at 120 h in series [6] was > 1600 mg/kg; in [8] it was > 800 mg/kg.
With `CC1CS(=O)(=O)CCN1/N=C/c1ccc([N+](=O)[O-])o1` (stereo unspecified) [NIFURTIMOX], the MST in series [1] was determined as 60 days; in series [2] it was 60 days; in series [14] it was 0 days; in [3], 60 days; in series [15], 60 days; in series [4], 2.5 days. Moreover, the MST in series [11] was determined as 60 days; in [5], 60 days; in series [16], 5.5 days; in series [17], 8 days; in [18], 40 days; in series [7], 60 days. The MST in [19] was 60 days; in series [9] it was 60 days; in series [20], 3 days; in series [21], 6.5 days; in series [12], 0 days; in series [13], 4 days. The MST amounted to 60 days in series [10] and 0 days in series [22].
With `Cn1c([N+](=O)[O-])cnc1-c1nc(/C=N/N2CCOCC2)cs1`, the MST turned out to be 7 days in series [1]; 0 days in [3]; 0 days in [11]; 60 days in series [7]; 4 days in [9]; 0 days in series [10]. The values for the LD50 at 120 h in series [6] and in series [8] were > 1600 mg/kg and > 800 mg/kg, respectively.
As to `O=[N+]([O-])c1ccc(-c2nc(/C=N/N3CCCCC3)cs2)o1`, the MST in [1] stood at 60 days; in series [2] it was 32 days; in series [3], 8 days; in series [4], 0 days; in series [11], 0 days; in series [5] it was 39 days. Besides, the MST in series [7] worked out at 60 days; in [9] it was 42 days; in series [10], 3 days. The LD50 at 120 h in [6] is > 1600 mg/kg; in series [8] it was > 800 mg/kg.
Turning to `O=[N+]([O-])c1ccc(-c2nc(/C=N/N3CCOCC3)cs2)o1`, the MST in [1] stood at 60 days; in series [2] it was 60 days; in series [3], 41 days; in series [4], 0 days; in [11], 19.5 days; in [5], 60 days. The MST in series [7] came out at 60 days; in series [9], 60 days; in series [12], 0 days; in series [13] it was 0 days; in series [10] it was 27 days. In addition, the results for the LD50 at 120 h in series [6] and in series [8] were > 1600 mg/kg and > 800 mg/kg, respectively.
On to `O=[N+]([O-])c1ccc(-c2nc(/C=N/N3CCS(=O)(=O)CC3)cs2)o1`, for which the MST in [1] is 44 days; in [2], 5 days; in series [3], 7 days; in series [4], 0 days; in series [11], 6 days; in series [5] it was 3 days. Also, the MST came out at 60 days in series [7], 18.5 days in series [9], 0 days in series [13] and 5 days in series [10]. The LD50 at 120 h in [6] was > 1600 mg/kg; in [8] it was > 800 mg/kg.
Consider `Cn1c([N+](=O)[O-])cnc1-c1nc(/C=N/N2CCS(=O)(=O)CC2)cs1`, for which the MST in series [1] amounted to 60 days; in series [2] it was 60 days; in [14], 37 days; in series [3] it was 60 days; in series [15], 60 days; in series [4], 18.5 days. Further, the MST turned out to be 60 days in series [11]; 60 days in [5]; 12 days in series [16]; 60 days in [17]; 60 days in series [18]; 60 days in series [7]. Further, the MST in series [19] worked out at 60 days; in [9], 60 days; in series [20], 4 days; in series [21], 22 days; in series [12] it was 15 days; in series [13] it was 14 days. The results for the MST in [10] and in series [22] were 60 days and 35 days, respectively. Also, the LD50 at 120 h in series [6] was > 1600 mg/kg; in series [8] it was > 800 mg/kg.
